In this data set the test system is EO771 cells. Nature of the data set: Mouse model of breast cancer (EO771 cells in mammary fat pads). In kind it is in vivo. The note with it: female C57Bl/6 mice, i.p. 10 mg/kg every other day for 3 weeks. An excerpt: In a mouse model of breast cancer, 8-week-old female C57Bl/6 mice were inoculated with EO771 cells in the 4th pair of mammary fat pads. […] Mice were sacrificed 24 days after cell inoculation.

`O=C(NCCCCC1CN2C(c3ccc4ccccc4c3)=CSC2=N1)Nc1ccccc1` (centres unmarked) [USCYL01]: the body weight result was “did not affect”; the “weights of the heart, liver, lungs, kidney, brain, and lymph nodes” value was “did not affect”.

(Values after patent publication US20250368662A1, “INHIBITORS OF INDOLEAMINE 2,3-DIOXYGENASE 1 (IDO1) AND TRYPTOPHAN 2,3-DIOXYGENASE (TDO) AND METHODS OF USING SAME” (University of South Carolina, priority 2024, published 2025).)
